Counter-ions that a name gives are not always drawn. Like-named read-outs stand apart in the source and are kept apart here.
Tests used:
[1] = Brain and plasma concentrations in an in vivo cassette mouse model; set-up: species or system male CD-1 mice; settings: male, PO cassette, 2.5 mg/kg per compound; for Kp at 3 h: read-out: (d) Brain: Plasma ratio at 3 hours
Method: The compounds of this invention were evaluated in an in vivo cassette mouse model to determine brain and plasma concentrations following oral dosing. This is an industry-standard and recognised means to assess brain penetration of small molecules (for recent literature article, refer to In vitro permeability analysis, pharmacokinetic and brain distribution study in mice of imperatorin, isoimperatorin and cnidilin in Radix Angelicae Dahuricae, Fitoterapia, Volume 85, March 2013 , Pages 144-153). It is also recognised that higher brain concentrations (and higher ratios of brain: plasma concentration) lead to greater exposure in the brain—this is clearly advantageous if the brain is the site of action.
For a single cassette study, male CD-1 mice were used (n=3 per timepoint, two timepoints: 1.0 hr and 3.0 hr).
5 compounds were dosed PO per cassette (dose level 2.5 mg/kg per compound, dose conc. 0.25 mg/ml, dose volume 10.0 ml/kg).
Formulation used to solubilize compounds: 10% DMSO/90% hydroxypropyl-β-cyclodextrin (20% w/v aqueous)
Sampling was terminal and plasma and brain matrices were generated. To prepare plasma samples, protein was precipitated using acetonitrile. To prepare brain samples, homogenisation and protein precipitation was performed with acetonitrile. Samples were analysed using HPLC-TOF MS using electrospray ionisation.

[2] = molecular target: p70S6K (h) (Homo sapiens, UniProt P23443); test: Determination of p70S6 inhibitory activity (radiometric kinase assay); format: biochemical; settings: read-out: (a) p70S6K1 IC50
Method: The ability of compounds of the invention to inhibit P70S6 kinase was determined using the protocol below.
20 mM MOPS, 1 mM EDTA, 0.01% Brij-35, 5% Glycerol, 0.1% b-mercaptoethanol, 1 mg/mL BSA
In a final reaction volume of 25 μL, p70S6K (h) (5-10 mU) is incubated with 8 mM MOPS pH 7.0, 0.2 mM EDTA, 100 μM KKRNRTLTV, 10 mM Mg acetate and [γ-33P-ATP] (specific activity approx. 500 cpm/pmol, concentration as required). The reaction is initiated by the addition of the MgATP mix. After incubation for 40 minutes at room temperature, the reaction is stopped by the addition of 5 μL of a 3% phosphoric acid solution. 10 μL of the reaction mixture is then spotted onto a P30 filtermat and washed three times for 5 minutes in 75 mM phosphoric acid and once in methanol prior to drying and scintillation counting.

[3] = system: phosphorylation of S6 Ser235/236 in MCF-7 cells; test: MCF-7 pS6 ELISA (phosphorylation of S6 Ser235/236); format: cell-based; settings: Homo sapiens, MCF7; for IC50: S6 Ser235/236, 1% FBS, 2 h, read-out: (b) MCF-7 pS6 ELISA IC50
Method: The following assay provides IC50 values for inhibition of P70S6K activity in a whole cell assay by determining effects on the phosphorylation of S6^Ser235/236 in MCF-7 cells by ELISA.
The following protocol was used: • 1) MCF-7 cells were seeded in 96-well plates at a density of 7000 cells per well and allowed to adhere for 6 h in media containing 10% FBS. • 2) The full serum media was replaced and cells incubated overnight in media containing 1% FBS, prior to addition of test compounds. • 3) Test compounds were prepared from 10 mM DMSO stocks to give final concentration ranges as indicated on graphs. DMSO was constant at a final concentration of 1%. • 4) Test compounds were incubated with cells in duplicate for 2 h at 37° C/5% CO2 in a humidified atmosphere. • 5) The media was removed and cells were lysed by freeze-thawing in cell lysis buffer. • 6) Detection of phosphorylated S6Ser235/236 was then carried out using a PathScan ELISA kit (Cell Signaling Technology #7205). • 7) Lysates were diluted 1:1 with sample diluent before being applied to wells coated with an antibody against phosphorylated-S6 protein. • 8) The ELISA was then performed as stated in the manufacturers' instructions. • 9) The raw data were normalised to control values and analysed using a 4-parameter logistic equation in GraphPad Prism.

[4] = system: MCF-7 cells; test: MCF-7 proliferation assay (Alamar blue, 72 h); format: cell-based; settings: Homo sapiens, MCF7, 72 h; read-out: (c) MCF-7 proliferation IC50
Method: The following assay was used to determine the ability of test compounds to inhibit cell growth.
The following protocol was used: • 1) MCF-7 cells were seeded in 96-well plates at 5000 cells per well and allowed to adhere overnight prior to addition of compound or vehicle control. • 2) Test compounds were prepared from 10 mM DMSO stocks to give a final concentration range of 100 μM, 30 μM, 10 μM, 3 μM, 1 μM, 0.3 μM, 0.1 μM, 0.03 μM, 0.01 μM and vehicle control. The DMSO content was constant at 1%. • 3) Test compounds were incubated with the cells for 72 h at 37° C. 5% CO2 in a humidified atmosphere. • 4) Alamar blue 10% (v/v) was then added and incubated for a further 6 h, and fluorescent product detected using the BMG FLUOstar plate reader. • 5) Data were analysed using a 4-parameter logistic equation in GraphPad Prism.

[5] = system: phosphorylation of S6 at Serine residues 240 and 244 in MCF7 cells; test: MCF7 pS6 ELISA variant (pS240/244, 0% FBS); format: cell-based; settings: Homo sapiens, S6 Serine 240 and 244 detected, read-out: (b) MCF-7 pS6 ELISA IC50 (pS240/244 variant)
[6] = CD-1, brain, read-out: (d) Brain conc. at 3 hours
[7] = CD-1, plasma, read-out: (d) Plasma conc. at 3 hours

p70S6K (h), sequence (P23443 whole entry): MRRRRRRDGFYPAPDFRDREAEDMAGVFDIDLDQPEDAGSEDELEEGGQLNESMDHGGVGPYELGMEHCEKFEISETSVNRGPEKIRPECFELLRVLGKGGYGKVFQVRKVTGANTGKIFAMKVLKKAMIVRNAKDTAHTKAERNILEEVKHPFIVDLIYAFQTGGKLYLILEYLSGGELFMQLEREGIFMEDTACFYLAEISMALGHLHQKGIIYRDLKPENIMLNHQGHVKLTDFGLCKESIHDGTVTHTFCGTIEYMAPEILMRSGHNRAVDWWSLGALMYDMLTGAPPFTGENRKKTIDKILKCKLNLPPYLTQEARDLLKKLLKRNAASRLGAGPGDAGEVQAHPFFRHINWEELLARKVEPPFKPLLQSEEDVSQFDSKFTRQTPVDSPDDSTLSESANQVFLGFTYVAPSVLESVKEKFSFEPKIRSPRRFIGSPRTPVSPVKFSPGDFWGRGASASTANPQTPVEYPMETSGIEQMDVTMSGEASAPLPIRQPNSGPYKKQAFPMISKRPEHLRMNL

Row | concentration at 3 h [1, 6] [µM] | Kp at 3 h ([1]; CD-1, brain) | concentration at 3 h [1, 7] [µM] | IC50 [2] [µM] | IC50 [3] [µM] | IC50 [4] [µM] | IC50 [5] [µM] | SMILES | inhibition at 0.3 µM ([3]; at 0.3 uM, read-out: (b) MCF-7 pS6 ELISA inhibition) [%]
1 | 1.5 | 1.2 | 1.23 | 0.025 | 0.4 | 15 | – | Clc1cccc(CNc2cnc3cc(-c4cn[nH]c4)ccc3n2)c1 [Example 2] | –
2 | 0.59 | 1.1 | 0.52 | 0.026 | 3.2 | 5.3 | – | Fc1ccc(CNc2cnc3cc(-c4cn[nH]c4)ccc3n2)cc1 [Example 3] | –
3 | 1.08 | 0.6 | 1.73 | 0.03 | 0.4 | 2.3 | – | COc1cccc(CNc2cnc3cc(-c4cn[nH]c4)ccc3n2)c1 [Example 4] | –
4 | 2.48 | 3.3 | 0.76 | 0.012 | 3.2 | 33 | – | CN(Cc1ccc(F)cc1)c1cnc2cc(-c3cn[nH]c3)ccc2n1 [Example 5] | –
5 | 2.88 | 3.5 | 0.83 | 0.009 | 0.9 | 7 | – | CN(Cc1cccc(F)c1)c1cnc2cc(-c3cn[nH]c3)ccc2n1 [Example 7] | –
6 | 0.82 | 1.1 | 0.76 | 0.026 | 1.4 | 24 | – | Fc1ccc(CNc2cnc3cc(-c4cn[nH]c4)ccc3n2)cc1F [Example 8] | –
7 | 2.07 | 1.4 | 1.51 | 0.003 | 0.3 | 15 | – | C[C@@H](Nc1cnc2cc(-c3cn[nH]c3)ccc2n1)c1ccccc1 [Example 9] | –
8 | 2.4 | 0.5 | 5.05 | 0.007 | 0.8 | 8.4 | – | COc1cccc([C@@H](C)Nc2cnc3cc(-c4cn[nH]c4)ccc3n2)c1 [Example 12] | –
9 | 3.25 | 1 | 3.34 | 0.018 | – | 4.2 | – | Cc1cccc([C@@H](C)Nc2cnc3cc(-c4cn[nH]c4)ccc3n2)c1 [Example 16] | 57

The remaining lines, values behind:

Row | SMILES | concentration at 3 h [1, 6] [µM] | Kp at 3 h ([1]; CD-1, brain) | concentration at 3 h [1, 7] [µM] | IC50 [2] [µM] | IC50 [3] [µM] | IC50 [4] [µM] | IC50 [5] [µM] | inhibition at 0.3 µM ([3]; at 0.3 uM, read-out: (b) MCF-7 pS6 ELISA inhibition) [%]
10 | CN(Cc1ccccc1)c1cnc2cc(-c3cn[nH]c3)ccc2n1 [Example 1] | 3.65 | 3.8 | 0.97 | 0.004 | 3 | 12.2 | – | –
11 | CCN(Cc1ccccc1)c1cnc2cc(-c3cn[nH]c3)ccc2n1 [Example 6] | 2.38 | 4.3 | 0.55 | 0.033 | – | 28 | – | –
12 | CN(Cc1ccccc1)c1nc2ccc(-c3cn[nH]c3)cc2[n+]([O-])n1 [Example 10] | 0.75 | 4.2 | 0.18 | 0.062 | – | – | – | –
13 | CN(Cc1ccccc1)c1nnc2cc(-c3cn[nH]c3)ccc2n1 [Example 11] | 2.62 | 7.5 | 0.35 | 0.064 | – | – | – | –
14 | C[C@H](c1ccccc1)N(C)c1cnc2cc(-c3cn[nH]c3)ccc2n1 [Example 13] | 2.96 | 4.2 | 0.7 | 0.005 | 1.2 | – | – | –
15 | COc1cccc([C@@H](C)N(C)c2cnc3cc(-c4cn[nH]c4)ccc3n2)c1 [Example 14] | 2.65 | 3.3 | 0.79 | 0.009 | 0.9 | 9 | – | –
16 | [O-][n+]1nc(NCc2ccccc2)nc2ccc(-c3cn[nH]c3)cc21 [Example 17] | 0.21 | 1.3 | 0.16 | 0.032 | – | – | – | –
17 | C[C@@H](Nc1nc2ccc(-c3cn[nH]c3)cc2[n+]([O-])n1)c1ccccc1 [Example 18, 1-oxido-N-[(1R)-1-phenylethyl]-7-(1H-pyrazol-4-yl)-1,2,4-benzotriazin-1-ium-3-amine hydrochloride] | 0.99 | 1.8 | 0.56 | 0.012 | – | – | 5.04 | –
18 | C[C@@H](Nc1nnc2cc(-c3cn[nH]c3)ccc2n1)c1ccccc1 [Example 19, N-[(1 R)-1-phenylethyl]-7-(1H-pyrazol-4-yl)-1,2,4-benzotriazin-3-amine hydrochloride] | 2.33 | 2.9 | 0.81 | 0.022 | – | – | 4.59 | –

— US10144726B2, “Modulators of the p70S6 kinase for use in the treatment of brain disorders and triple-negative breast cancer” (SENTINEL ONCOLOGY LIMITED, priority 2015, dated 2018)
